In patent publication US9809586B2, “Inhibitors of collagen prolyl 4-hydroxylase” (WISCONSIN ALUMNI RESEARCH FOUNDATION, priority 2015, dated 2017):

Key:
human CP4H1 = target: T1, human CP4H1 (Homo sapiens, UniProt P13674); experiment: Assay of human CP4H1 activity in the presence of inhibitors; type: biochemical; conditions: 10 μM compound, 50 μM FeSO4
T1 construct: made in house; host or cells: Origami B(DE3) Escherichia coli
Method: The catalytic activity of human CP4H1 was assayed as described previously.^35 Briefly, activity assays were carried out at 30° C. in 100 μL Tris-HCl buffer, pH 7.8, containing human CP4H1 (100 nM), inhibitor (0-500 μM), substrate (dansylGlyProProGlyOEt, 500 μM), FeSO4 (50 μM), BSA (1 mg/mL), catalase (0.1 mg/mL), sodium ascorbate (2 mM), DTT (100 μM), and α-ketoglutarate (100 μM). Reactions were pre-incubated with or without inhibitor for 2 min at 30° C., after which the reaction was initiated by the addition of α-ketoglutarate. After 15 min, reactions were quenched by boiling for 45 s and centrifuged at 10,000 g. The supernatant (20-50 μL) was injected into a Nucleodur® C18 Gravity reversed-phase column (4.6×250 mm, 5 μm particle size) from Macherey-Nagel (Bethlehem, Pa.). The column was eluted at 1 mL/min with a gradient (20 min) of aqueous acetonitrile (20-45% v/v) containing 0.1% v/v TFA. The absorbance of the eluent was monitored at 289 nm. All assays were performed in triplicate. Data are reported as activity relative to control reactions lacking inhibitor, where catalytic activity is determined from the percent conversion of substrate to product. Dose-response curves were generated for each inhibitor by plotting the relative activity versus the log of the inhibitor concentration. IC50-values for each inhibitor were interpolated from the data by non-linear regression using the sigmoidal dose-response function available in Prism.

MDA-MB-231 cells [1] = experiment: Cytotoxicity assay (MTS); type: cell-based; conditions: MDA-MB-231, 24 h; higher than aqueous solubility limit
Method: The toxicity of esterified biheteroaryl compounds for human breast cancer cells was evaluated with the CellTiter 96® AQueous One Solution Cell Proliferation Assay (MTS) from Promega (Madison, Wis.). Briefly, MDA-MB-231 cells grown as described in Section X were plated at a concentration of 5,000 cells/well in a clear 96-well plate. The cells were allowed to adhere for 4 h, after which the medium was removed and discarded. Fresh medium was added and the cells were treated with varying concentrations of the test compound at 37° C. for 24 h. The medium was removed, and cells were washed with Dulbecco's PBS. The MTS reagent was added at a ratio of 1:5, and the cells were incubated at 37° C. for 2 h before measuring the absorbance at 490 nm. The average absorbance was measured in triplicate for each concentration tested, and the entire experiment was repeated in duplicate. The percentage of viable cells was determined by normalizing to a PBS control (100% viable), and a H2O2 control (0% viable). For all of the compounds tested, the LD50-value could not be measured due to its being higher than the aqueous solubility limit: diethyl bipy55′DC, LD50>100 μM; diethyl pyimDC, LD50>1000 μM; diethyl pythiDC, LD50>500 μM.

HEK293T cells = experiment: Effect on iron metabolism (immunoblots for ferritin, TfR, HIF-1α) in HEK293T cells; type: cell-based, human; conditions: for Iron deficient phenotype: HEKs, 100 μM, details in Vasta et al. 2015; for Level of TFR, HIF-1α, or ferritin: HEK cells, diethyl pyimDC at low levels
Method: (§1) MDA-MB-231 or HEK293T cells were plated at 50,000 cells/well into 12-well plates and grown to confluence (˜24 h) as described in Section X. The cells were washed, and the medium was replaced with 1.0 mL of serum-free medium. Stock solutions of all test compounds were prepared at 100× in DMSO and added to a final concentration of 1× (0.1-0.5 mM). After addition of the test compound or DMSO vehicle, cells were incubated for 24 h. The cells were then washed with 100 μL MPER solution from Thermo Fisher Scientific (Waltham, Mass.) and collected. Protein concentrations were determined by BCA assay (Thermo Fisher Scientific), and samples corresponding to 40 μg total protein were analyzed by immunoblot.
(§2) For all immunoblot analyses, protein samples where boiled in SDS-PAGE buffer, separated by electrophoresis through a Tris-glycine SDS-PAGE gel from Bio-Rad Laboratories (Hercules, Calif.), and subsequently transferred to a PVDF membrane for immunoblotting. All primary antibodies were used at the working dilution specified by the manufacturer. Primary antibodies were visualized using a complementary secondary antibody fused to horseradish peroxidase (HRP), with detection of HRP by chemiluminescence, imaging using an ImageQuant LAS 4000 (GE Healthcare), and quantification by densitometry (ImageJ software). The anti-rabbit antibody from Promega and the anti-mouse antibody from Abbiotec (San Diego, Calif.) were used at the working dilution specified by the manufacturer.
(§3) For investigations of iron metabolism, protein samples (40 μg) were separated by SDS-PAGE through a 12% w/v acrylamide gel, and blots were probed with primary antibodies to human ferritin (rabbit monoclonal) from Abcam (Cambridge, Mass.), human transferrin receptor (mouse monoclonal) from Invitrogen, human HIF-1α (mouse monoclonal) from BD Biosciences, and human β-actin (rabbit monoclonal) from Cell Signaling Technology (Danvers, Mass.). Quantifications were normalized to the signal from β-actin, after which treated samples were compared to vehicle-treated controls.

[2] = system: MDA-MB-231 breast cancer cells; experiment: Effect on iron metabolism (immunoblots for ferritin, TfR, HIF-1α) in MDA-MB-231 cells; conditions: for Iron deficient phenotype: MDA-MB-231 (231s), 100 μM, details in Vasta et al. 2015; for Concentration at which no iron-deficient phenotype is observed / Iron-deficiency phenotype of treated cells: MDA-MB-231, 24 h; for Iron-deficiency phenotype of treated cells: EDHB 500 μM, diethyl pythiDC up to 500 μM
Method: as §1, §2, §3

P4HA1 = experiment: Effect on P4HA1 levels (immunoblot); type: cell-based, human; conditions: MDA-MB-231
Method: For investigations of P4HA1 levels, protein samples were treated and quantified as described above for iron metabolism except that the blots were probed with primary antibodies to human P4HA1 (rabbit polyclonal) from Thermo Fisher Scientific and human β-actin.

MDA-MB-231 cells [3] = experiment: Effect on secretion of type I collagen into conditioned media; type: cell-based, human; conditions: for Efficacy on collagen secretion compared with diethyl bipy55′DC: MDA-MB-231; for Level of secreted type I collagen: MDA-MB-231, 48 h, conditioned media
Method: For investigations of collagen secretion, protein samples were separated by SDS-PAGE through a 7.5% w/v acrylamide gel. Blots were first stained for total protein using Ponceau S, after which they were probed with a primary antibody to human type-I collagen (α1) (rabbit polyclonal) from Novus Biologicals (Littleton, Colo.).
After the addition of a test compound or vehicle (DMSO), cells were incubated for 48 h, after which 1.0 mL of conditioned medium was removed and added to 4.0 mL of chilled acetone (−20° C.). The resultant mixtures were incubated for 3 h at −20° C., after which the precipitated protein was pelleted by centrifugation at 10,000 g for 30 min. The supernatants were discarded and the pellets dried briefly in a fume hood. Pellets were stored at −20° C. prior to analysis with an immunoblot.

[4] = Assay of Fe(II)-affinity for biheteroaryl ligands (Fe20-EC50 titration, spectrophotometry); type: physicochemical
Method: A library of biheteroaryl compounds (FIG. 2) was prepared and evaluated them as iron chelators in vitro. The library was assembled either from commercial vendors (pypyr and pyim) or by synthesis using palladium-catalyzed cross-coupling reactions (pypyraz, pypyrid, pyox, and pythi). To evaluate the iron affinity of these compounds in vitro, titration experiments were performed to determine the half-maximal concentration required to form a complex with 20 μM Fe(II) at pH 7.0.
The affinity of biheteroaryl ligands for Fe(II) was determined comparatively by measuring the half-maximal concentration (EC50) required for binding 20 μM Fe(II) (Fe20-EC50) in sodium phosphate buffer at pH 7. Stock solutions of ligands were prepared in either water for high affinity ligands (typically Fe20-EC50<1 mM) or DMSO for low affinity ligands (typically Fe20-EC50>1000 μM). Stock solutions of FeSO4 were prepared in H2O and used within 3 hours of preparation. […] For high affinity ligands, solutions were allowed to equilibrate for 15 min, after which the absorbance was recorded at the λmax for the complex under study. For most low affinity ligands, the corresponding Fe(II) complexes were unstable and observed to dissociate over time. Therefore, the absorbance value was determined within 30 s of mixing, where the absorbance was measured at the λmax for the complex under study. Complexes with pyox were not observed under these conditions. Absorbance values were corrected by subtracting the absorbance value in the absence of ligand. Dose-response curves were generated for each ligand by plotting the absorbance versus the log of the ligand concentration. Fe20-EC50 values for each ligand were interpolated from the dose-response curves by non-linear regression using the sigmoidal dose-response function in Prism. All experiments were performed in triplicate.

IRPs = experiment: Electrophoretic mobility shift assay for IRE-binding by IRPs from treated cells; type: cell-based, human; conditions: treated MDA-MB-231 cells, 24 h, radiolabeled RNA ligand
Method: The resultant pellets (˜50 μL) were washed with PBS and then lysed using a protocol described previously.^41 Briefly, cell pellets were resuspended in 200 μL of cell lysis buffer, which was 20 mM Hepes-HCl buffer, pH 7.4, containing sodium pyrophosphate (10 mM), sodium fluoride (50 mM), β-glycerophosphate (50 mM), EDTA (5 mM), GTP (1 mM), sodium orthovanadate (1 mM), benzamidine hydrochloride (2 mM), Nonidet NP-40 (0.5% v/v), p-nitrophenyl p′-guanidinobenzoate-HCl (25 μg/mL), DTT (1 mM), leupeptin (40 μg/mL), pepstatin (4 μg/mL), SBTI (100 μg/mL), MG132 (10 μM), PMSF (200 μM), and BHT (5 μg/mL) by vortexing and lysed on ice by vortexing every few min. After 15 min, the lysates were centrifuged at 14,000 rpm and the supernatants aliquoted and stored at −80° C. until analysis by an electrophoretic mobility shift assay (EMSA).
EMSAs were performed and quantified essentially as described previously.^42 Briefly [^32P]-L-ferritin IRE (1 nM RNA, specific radioactivity ˜7,000 dpm/fmol) was incubated with lysate protein (2.5 μg as determined by the Bradford assay) in binding buffer for 10 min on ice. Heparin was added (to 0.5 mg/mL), and the reaction mixture was incubated for an additional 5 min on ice before separating bound and free RNA on a nondenaturing polyacrylamide gel at ambient temperature.

[5] = Estimate of pKa by potentiometric titration; type: physicochemical; conditions: water; conjugate acid, estimated by titration of the entire compound
Method: The pKa value of biheteroaryl compounds was estimated with potentiometric titration. Compounds (5-10 mM) were dissolved in water and the pH was adjusted to ˜12 by adding 10 M NaOH. The pH of the solution was recorded with an Accumet™ XL500 pH meter equipped with an Orion 912600® pH electrode from Thermo Fisher Scientific while titrating the solution with HCl (1 M or […], as necessary) until a pH value of ˜1.75 was achieved. Titration curves were prepared by plotting the solution pH versus the volume of 1 M HCl added, and pKa values were estimated from derivative plots of the titration curves using Prism software.

[6] = conjugate acid of pyridine (bipy) or the nonpyridyl ring; cited from earlier work
[7] = titration of 20 μM FeSO4, pH 7, mean (±SE) of three replicates

T1 sequence (P13674 18-534): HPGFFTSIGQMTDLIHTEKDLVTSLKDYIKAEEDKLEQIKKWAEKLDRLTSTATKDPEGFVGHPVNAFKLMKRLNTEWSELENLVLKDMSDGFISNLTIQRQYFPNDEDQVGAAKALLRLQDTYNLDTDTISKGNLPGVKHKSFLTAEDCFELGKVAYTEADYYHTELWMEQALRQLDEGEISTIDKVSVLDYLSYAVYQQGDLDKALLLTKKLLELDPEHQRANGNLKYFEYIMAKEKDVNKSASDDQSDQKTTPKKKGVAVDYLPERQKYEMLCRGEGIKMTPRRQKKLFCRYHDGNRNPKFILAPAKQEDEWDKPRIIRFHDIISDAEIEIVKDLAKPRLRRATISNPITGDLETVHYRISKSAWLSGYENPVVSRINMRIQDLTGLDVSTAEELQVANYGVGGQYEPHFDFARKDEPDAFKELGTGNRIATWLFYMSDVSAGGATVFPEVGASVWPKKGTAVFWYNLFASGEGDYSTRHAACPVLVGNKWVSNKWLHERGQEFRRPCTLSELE
T1 sequence (P07237 18-508 partner): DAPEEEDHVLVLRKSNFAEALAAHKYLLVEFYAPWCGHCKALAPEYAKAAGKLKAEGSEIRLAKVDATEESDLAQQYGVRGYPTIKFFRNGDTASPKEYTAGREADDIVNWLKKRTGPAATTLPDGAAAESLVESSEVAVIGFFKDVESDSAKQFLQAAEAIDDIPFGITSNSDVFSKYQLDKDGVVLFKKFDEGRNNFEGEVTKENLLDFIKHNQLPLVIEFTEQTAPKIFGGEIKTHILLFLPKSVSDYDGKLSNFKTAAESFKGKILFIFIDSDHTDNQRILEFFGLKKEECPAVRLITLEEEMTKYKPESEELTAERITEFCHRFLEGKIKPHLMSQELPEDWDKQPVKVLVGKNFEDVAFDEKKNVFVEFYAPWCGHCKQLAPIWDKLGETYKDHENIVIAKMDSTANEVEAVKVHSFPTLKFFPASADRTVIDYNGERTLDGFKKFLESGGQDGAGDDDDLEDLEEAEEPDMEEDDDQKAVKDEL

O=C(O)c1ccc(-c2ccc(C(=O)O)nn2)nc1 [pypyridDC, 6-(5-Carboxypyridin-2-yl)pyridazine-3-carboxylic Acid]
Inhibition of catalytic activity of human CP4H1 in initial screen (human CP4H1): modest activation

Cn1c(C(=O)O)cnc1-c1ccc(C(=O)O)cn1 [NMe-pyimDC, 2-(5-Carboxy-1-methyl-1H-imidazol-2-yl)pyridine-5-carboxylic Acid]
Inhibition of catalytic activity of human CP4H1 in initial screen (human CP4H1): potency is less than that of pyimDC

CCOC(=O)c1ccc(-c2ccc(C(=O)OCC)cn2)nc1 [diethyl bipy55′DC, Diethyl 2,2′-bipyridine-5,5′-dicarboxylate, reference compound]
LD50 (MDA-MB-231 cells [1]): > 100 µM | Iron deficient phenotype (HEK293T cells): did not cause iron deficiency | Iron deficient phenotype [2]: did not cause iron deficiency

CCOC(=O)c1ccc(-c2ncc(C(=O)OCC)[nH]2)nc1 [diethyl pyimDC, Ethyl 2-(5-ethoxycarbonyl-1H-imidazol-2-yl)pyridine-5-carboxylate]
LD50 (MDA-MB-231 cells [1]): > 1000 µM | Levels of human CP4H1 (P4HA1) itself (P4HA1): did not appear to affect | Efficacy on collagen secretion compared with diethyl bipy55′DC (MDA-MB-231 cells [3]): indistinguishable | Level of secreted type I collagen (MDA-MB-231 cells [3]): reduced the level of secreted collagen significantly | EC50 ([4]; Fe(II) 20 μM, highest concentration tested, not saturated): > 600 µM | Level of TFR, HIF-1α, or ferritin (HEK293T cells): did not affect | Accumulation of TFR or HIF-1α ([2]; MDA-MB-231): without an associated accumulation | Concentration at which no iron-deficient phenotype is observed [2]: ≤ 56 µM | Iron-deficiency phenotype of treated cells [2]: intermediate phenotype | Ferritin levels ([2]; MDA-MB-231, above 56 μM): significant decrease | RNA binding by IRPs (IRPs): did not

c1ccc(-c2cccnn2)nc1 [pypyrid]
EC50 [4, 7]: 124 ± 1 µM | pKa [5]: < 3 | Heteroaryl pKa (ref.) [6]: 2.3 (49)

c1ccc(-c2ncco2)nc1 [pyox, 2-(Oxazol-2-yl)pyridine]
EC50 [4, 7]: > 18000 µM | pKa [5]: < 3 | Heteroaryl pKa (ref.) [6]: 0.8 (54)

c1ccc(-c2ncc[nH]2)nc1 [pyim, 2-(1H-Imidazol-2-yl)pyridine, reference compound]
EC50 [4, 7]: 900 ± 30 µM | Level of TFR, HIF-1α, or ferritin (HEK293T cells): did not affect | pKa [5]: 5.4 | Heteroaryl pKa (ref.) [6]: 7.1 (51)

c1ccc(-c2cc[nH]n2)nc1 [pypyr, 2-(1H-pyrazol-3-yl)pyridine, reference compound]
EC50 [4, 7]: 2250 ± 100 µM | pKa [5]: 4.1 | Heteroaryl pKa (ref.) [6]: 2.5 (52)

c1ccc(-c2cnccn2)nc1 [pypyraz, 2-(Pyridin-2-yl)pyrazine]
EC50 [4, 7]: 400 ± 7 µM | pKa [5]: < 3 | Heteroaryl pKa (ref.) [6]: 0.8 (50)

c1ccc(-c2nccs2)nc1 [pythi, 2-(Thiazol-2-yl)pyridine]
EC50 [4, 7]: 5100 ± 100 µM | Level of TFR, HIF-1α, or ferritin (HEK293T cells): did not affect | pKa [5]: < 3 | Heteroaryl pKa (ref.) [6]: 2.5 (53)

CCOC(=O)c1ccc(-c2ncc(C(=O)OCC)s2)nc1 [diethyl pythiDC, Ethyl 2-(5-ethoxycarbonylthiazol-2-yl)pyridine-5-carboxylate]
LD50 (MDA-MB-231 cells [1]): > 500 µM | Levels of human CP4H1 (P4HA1) itself (P4HA1): did not appear to affect | Efficacy on collagen secretion compared with diethyl bipy55′DC (MDA-MB-231 cells [3]): indistinguishable | Level of secreted type I collagen (MDA-MB-231 cells [3]): reduced the level of secreted collagen significantly | Level of TFR, HIF-1α, or ferritin (HEK293T cells): did not affect | Concentration at which no iron-deficient phenotype is observed [2]: ≤ 500 µM | Iron-deficiency phenotype of treated cells [2]: normal | RNA binding by IRPs (IRPs): did not

O=C(O)c1ccc(-c2cc(C(=O)O)[nH]n2)nc1 [pypyrDC, 2-(5-Carboxy-1H-pyrazol-3-yl)pyridine-5-carboxylic Acid]
Inhibition of catalytic activity of human CP4H1 in initial screen (human CP4H1): modest activation

CCOC(=O)c1ccc(-c2cc(C(=O)OCC)ccn2)nc1 [diethyl bipy45′DC, Diethyl 2,2′-bipyridine-4,5′-dicarboxylate, reference compound]
Iron deficient phenotype (HEK293T cells): did not cause iron deficiency | Iron deficient phenotype [2]: did not cause iron deficiency

CCOC(=O)c1ccnc(-c2cc(C(=O)OCC)ccn2)c1 [diethyl bipy44′DC, reference compound]
Iron deficient phenotype (HEK293T cells): distinct iron deficient phenotype | Iron deficient phenotype [2]: distinct iron deficient phenotype
